Values joined by “and” are separate entries in the source; they are usually repeats but may differ in a detail not shown here. Equal entries are not always repeated.
Experiments:
[1] = tested on: TGFβ targets (phospho-SMAD2, CTHRC1, Caldesmon); assay: Protein expression of TGFβ targets in established liver metastases; assay type: in vivo; conditions: mice with established liver metastases
Excerpt: (Figure S4). […] Moreover, these mice were resistant to immune checkpoint therapy like human patients with pMMR/MSS CRC are in the clinic.[5],[33]

[2] = Plasma protein binding by rapid equilibrium dialysis, rat plasma
Procedure: 5. Methods for In vitro characterizations of HYL001 […]
Rapid equilibrium dialysis was performed in triplicates with a rapid equilibrium dialysis (RED) by Sai Life Sciences Lt. (Telangana, India). The RED device contains a dialysis membrane with a molecular weight cut -off […]
of 8,000 Da, separating two chambers for plasma and buffer, respectively. […]
were added to the plasma chamber, versus phosphate buffer saline (pH 7.4) to the buffer chamber. Dialysis was performed for 4 h with 100 RPM shaking at 37 °C. […]
compounds in plasma were either frozen immediately (T0 sample), or incubated at 37 °C for 4 h without dialysis (non-dialysed), respectively.
Following dialysis, an aliquot was removed from either chamber and diluted with equal volume of opposite matrix to nullify the matrix effect. Similarly, buffer was added to recovery and stability samples. Next, acetonitrile (containing internal standard, glipizide) was added to the mixtures for protein precipitation and vortexed for 5 minutes. The samples were centrifuged at 4000 RPM at 4 °C for 10 min and the supernatant was submitted for liquid chromatography mass spectrometry (LC-MS/MS) analysis. Samples were monitored for parent compound using multiple reaction monitoring (MRM) mode.
The peak area ratios (PAR, analyte versus internal standard) in plasma vs bufffer were used to determine the fraction of compound bound to plasma proteins. The following equation was used to determine the extent of plasma protein binding: percent free drug = 100% x (PARbuffer / PARplasma); percent bound drug = 100 - % free drug. Recovery was calculated as 100% x (PARplasma + PARbuffer)dialysed / (PARplasma)non-dialysed; stability as 100% x (PAR)non-dialysed / (PARplasma)frozen at T0. […]

[3] = molecular target: hERG potassium channel (Homo sapiens, UniProt Q12809); assay: hERG automated patch clamp on CHO-K1 cells; conditions: micromolar concentrations
Procedure: clamp (Eurofins, Celle L’Evescault, France) on CHO -K1 cells. The tail current amplitude, induced by a one
second test pulse to -40 mV after a two second pulse to +20 mV, was measured before and aft er drug incubation
and expressed as % inhibition.

[4] = molecular target: T1, ALK4 (ACVR1B) (Homo sapiens, UniProt P36896); assay: KINOMEscan competitive binding assay (Kd); conditions: analyses herein; read-out: Binding constant (Kd) ALK4 (ACVR1B)
T1 sequence (P36896 24-505): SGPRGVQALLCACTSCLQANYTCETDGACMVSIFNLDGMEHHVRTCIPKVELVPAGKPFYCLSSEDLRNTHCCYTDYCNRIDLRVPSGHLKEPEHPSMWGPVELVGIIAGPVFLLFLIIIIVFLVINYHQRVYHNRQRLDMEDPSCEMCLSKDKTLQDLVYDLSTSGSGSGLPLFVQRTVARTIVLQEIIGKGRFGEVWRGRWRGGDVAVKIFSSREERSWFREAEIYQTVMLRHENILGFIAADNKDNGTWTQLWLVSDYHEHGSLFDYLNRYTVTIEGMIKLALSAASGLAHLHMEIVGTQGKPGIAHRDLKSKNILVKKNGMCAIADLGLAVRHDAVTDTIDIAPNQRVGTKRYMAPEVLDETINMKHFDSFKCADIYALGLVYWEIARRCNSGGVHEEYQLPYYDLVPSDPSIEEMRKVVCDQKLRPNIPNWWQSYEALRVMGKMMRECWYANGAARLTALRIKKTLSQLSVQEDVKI
Procedure: (§1) 5. Methods for In vitro characterizations of HYL001
(§2) Kinase affinity and selectivity
(§3) The affinity of the ALK5 inhibitor HYL001 was determined for the ALK kinase family using the […]
(§4) DNA-tagged kinases and immobilized assay ligands, using quantitative PCR —run by Eurofins/DiscoveryX (Birmingham AL, USA). Dissociation constants were calculated by measuring the amount of kinase captured on the solid support as a function of the test compound concentration. Kd values were obtained by an 11 -point half-log dilution range of 0.5–30,000 nM of inhibitor for ALK1 (ACVRL1), ALK2 (ACVR1), ALK3 (BMPR1A), ALK4 (ACVR1B), ALK6 (BMPR1B), ACVR2B and TGFβ R2. In addition, this technology was used to assess selectivity towards a panel of 97 Kinases (scanEDGE) by Eurofins Panlabs (Grapevine TX, USA).
(§5) The strength of competitive binding, defined as the percentage of binding inhibition of kinases to assay ligan d, was visualized using the TREEspot software (DiscoverRx Corporation) and a selectivity score was calculated (the fraction of non -mutated kinases tested with competitive binding inhibition above threshold percentages 65 […]

[5] = molecular target: ALK5 (TGFBR1) (Homo sapiens, UniProt P36897); assay: KINOMEscan competitive binding assay (Kd); conditions: analyses herein; HYL001 run twice, average 22.5 nM; read-out: Binding constant (Kd) ALK5 (TGFBR1)
Procedure: as §1, §2, §3, §4, §5

[6] = tested on: Salmonella typhimurium strains TA98, TA100, TA1535 and TA1537; assay: Ames test; assay type: cell-based
Procedure: The mutagenic potential of HYL001 was evaluated by the Ames test, assessing its ability to induce reverse mutations in the histidine operon of Salmonella typhimurium strains that allow for detection of both substitution mutations (TA100 and TA1535) and frameshift mutations (TA98 and TA1537). The mutagenic potential of HYL001 was tested at 6 concentrations (semilog 1–320 μg/mL) alone or in the presence of liver S9 fractions. […]
The Ames test was performed at Xenomatrix (Allschwil, Switzerland). Bacteria from the S. typhimurium […]
negative control, for 90 minutes in medium containing sufficient histidine to support approximately two cell divisions. After exposure, the cultures were diluted in pH indicator medium lacking histidine or tryptophan and aliquoted into 48 wells of a 384-well plate. Within two days, cells that have undergone reversion to amino acid prototrophy grow into colonies. The number of wells containing revertant colonies were counted by pH indicator colour change for each dose and compared to a solvent (negative) control. A dose dependent increase in the number of revertant colonies upon exposure to HYL001 would have indicated mutagenicity.

Sequence of ALK5 (TGFBR1) (P36897 34-503): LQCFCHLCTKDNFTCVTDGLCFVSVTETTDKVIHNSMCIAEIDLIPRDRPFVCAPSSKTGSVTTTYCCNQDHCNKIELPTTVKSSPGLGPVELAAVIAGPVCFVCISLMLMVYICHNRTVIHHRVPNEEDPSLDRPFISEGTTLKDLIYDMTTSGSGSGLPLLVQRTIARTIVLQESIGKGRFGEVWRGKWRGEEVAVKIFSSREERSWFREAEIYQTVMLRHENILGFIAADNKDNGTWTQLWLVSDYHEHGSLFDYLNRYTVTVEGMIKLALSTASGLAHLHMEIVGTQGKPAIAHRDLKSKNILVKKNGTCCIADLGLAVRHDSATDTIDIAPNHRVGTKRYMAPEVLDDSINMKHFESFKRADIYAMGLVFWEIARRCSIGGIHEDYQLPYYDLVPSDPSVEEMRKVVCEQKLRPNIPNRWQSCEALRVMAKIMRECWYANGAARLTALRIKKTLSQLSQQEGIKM
Sequence of hERG potassium channel (Q12809 whole entry): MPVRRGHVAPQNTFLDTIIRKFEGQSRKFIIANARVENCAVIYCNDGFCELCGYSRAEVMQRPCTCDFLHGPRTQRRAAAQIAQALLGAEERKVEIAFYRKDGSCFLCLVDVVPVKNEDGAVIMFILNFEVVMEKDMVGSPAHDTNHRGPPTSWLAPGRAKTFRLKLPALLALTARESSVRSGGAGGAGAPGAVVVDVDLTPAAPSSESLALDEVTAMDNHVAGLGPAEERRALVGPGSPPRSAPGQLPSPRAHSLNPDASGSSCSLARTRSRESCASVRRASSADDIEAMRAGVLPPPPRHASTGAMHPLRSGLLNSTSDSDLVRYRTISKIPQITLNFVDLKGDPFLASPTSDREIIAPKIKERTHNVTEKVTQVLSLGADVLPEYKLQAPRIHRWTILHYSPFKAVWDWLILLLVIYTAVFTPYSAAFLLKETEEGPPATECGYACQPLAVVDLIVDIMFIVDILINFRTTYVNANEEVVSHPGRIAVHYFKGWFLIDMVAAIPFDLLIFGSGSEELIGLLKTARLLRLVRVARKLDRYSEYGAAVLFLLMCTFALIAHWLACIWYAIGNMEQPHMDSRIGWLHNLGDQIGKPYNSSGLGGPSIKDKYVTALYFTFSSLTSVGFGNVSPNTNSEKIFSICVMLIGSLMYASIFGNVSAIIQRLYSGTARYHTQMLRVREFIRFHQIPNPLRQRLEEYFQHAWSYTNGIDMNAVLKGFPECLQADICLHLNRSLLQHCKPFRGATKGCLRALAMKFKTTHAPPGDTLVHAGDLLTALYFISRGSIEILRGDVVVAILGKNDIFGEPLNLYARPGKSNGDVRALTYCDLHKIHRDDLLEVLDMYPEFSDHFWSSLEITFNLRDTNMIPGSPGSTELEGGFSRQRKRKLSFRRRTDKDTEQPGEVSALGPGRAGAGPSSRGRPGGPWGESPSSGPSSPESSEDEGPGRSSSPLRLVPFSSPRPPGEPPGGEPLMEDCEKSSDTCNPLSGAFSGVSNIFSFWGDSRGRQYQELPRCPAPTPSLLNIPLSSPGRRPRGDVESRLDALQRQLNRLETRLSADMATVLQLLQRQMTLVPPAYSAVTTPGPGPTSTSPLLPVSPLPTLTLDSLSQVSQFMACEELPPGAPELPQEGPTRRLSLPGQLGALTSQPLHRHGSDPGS

## Cc1cccc(-c2nn3c(c2-c2ccnc4ccc(O)cc24)CCC3)n1 [HYL001, 4-(2-(6-Methylpyridin-2-yl)-5,6-dihydro-4H-pyrrolo[1,2-b]pyrazol-3-yl)quinolin-6-ol]
[1]
  Protein expression of TGFβ targets (phospho-SMAD2, CTHRC1, Caldesmon): marked decrease
[2]; rat plasma
  % Free fraction: 4.9%
[2]; rat plasma, 37 °C
  % Compound remaining at 4 hrs: 106.1%
[2]; rat, plasma (rapid equilibrium dialysis device), pH 7.4
  recovery at 4 h, 5 µM: 100%
[2]; rat, plasma, pH 7.4
  fraction unbound at 4 h, 5 µM: 0.049
[3]
  hERG inhibition (in words): low inhibition
[4]
  Kd: 0.013 µM
[5]
  Kd: 0.025 µM and 0.0225 µM
[6]; 6 concentrations 1–320 μg/mL, alone or with liver S9, all strains
  Positive mutagenic responses (Ames test): No positive mutagenic responses
[6]; TA98, w/o S9
  Dose dependency: No
  Mutagenic data points: No
[6]; TA98, with S9
  Dose dependency: No
  Mutagenic data points: No
[6]; TA100, w/o S9
  Dose dependency: No
  Mutagenic data points: No
[6]; TA100, with S9
  Dose dependency: No
  Mutagenic data points: No
[6]; TA1535, w/o S9
  Dose dependency: No
  Mutagenic data points: No
[6]; TA1535, with S9
  Dose dependency: No
  Mutagenic data points: No
[6]; TA1537, w/o S9
  Dose dependency: No
  Mutagenic data points: No
[6]; TA1537, with S9
  Dose dependency: No
  Mutagenic data points: No

Reference: paper PMC11729428, “New Potent Inhibitor of Transforming Growth Factor-Beta (TGFβ) Signaling that is Efficacious against Microsatellite Stable Colorectal Cancer Metastasis in Combination with Immune Checkpoint Therapy in Mice” (ACS Pharmacology & Translational Science, 2024)
